In patent publication US10844017B2, “Biaryl compound, preparation method and use thereof” (FUDAN UNIVERSITY, priority 2017, dated 2020):
pEC50: −log10 of the molar value.

Columns and labels:
[1] = tested on: Mouse lymphoma EL4 cells transfected with RORγt plasmid; test: Determination of the activation rate on mouse lymphoma EL4 (IL-17 generation); type: cell-based; conditions: compound at 2 μM, 24 hours, PMA/ionomycin stimulation 4 hours, flow cytometry, read-out: +act % (activation of IL-17 generated by EL4 cells)
Description: Determination of the Activation Rate on Mouse Lymphoma EL4
Mouse lymphoma EL4 cells transfected with RORγt plasmid were cultured at 37° C. under an atmosphere with 5% CO2, with a test compound added simultaneously. After 24 hours, the generation efficiency of IL-17A was analyzed. Before collection of cells, PMA at 50 ng/mL and ionomycin at 500 ng/mL were added for stimulation for 4 hours. The proportion of IL-17 was detected by intracellular staining and flow cytometry. […] The activation rate of IL-17 generated by EL4 cells for the compound was measured at a concentration of 2 μM.

[2] = tested on: Mouse spleen CD4+T cells differentiated into Th17 cells; test: Mouse Th17 cell differentiation, half-maximal effect concentration; type: cell-based; conditions: 96 hours, proportion of IL-17 by intracellular staining and flow cytometry
Description: Determination of the Half-Maximal Effect Concentration of Mouse Th17 Cell Differentiation
Experimental methods: Mouse spleen CD4^+T cells were separated and differentiated into Th17 cells. CD4^+T cells were cultured in the environment containing anti-CD3 (0.25 μg/mL), anti-CD28 (1 μg/mL), anti-IL4 (2 μg/mL), anti-IFN-γ (2 μg/mL), TGF-β (5 ng/mL), and IL6 (20 ng/mL), with a test compound added at the same time. After 96 hours, the differentiation efficiency of Th17 was analyzed. Before collection of cells, PMA at 50 ng/mL and ionomycin at 500 ng/mL were added for stimulation for 4 hours, and the proportion of IL-17 was detected by intracellular staining and flow cytometry. Meanwhile, we used Live/Dead Cell Dye (Invitrogen) staining method to analyze the cell survival rate and to judge whether the drug had toxicity to cells, and determined the half-maximal effect concentration EC50 of the compounds.

[3] = molecular target: T1, RORγ receptor (B-RORγ LBD / Bioin-SRC1) (Homo sapiens, UniProt P51449); test: Determination of agonistic activities on RORγ receptors in vitro (dual FRET); type: biochemical; conditions: average of at least two independent experiments
T1 construct: 40 nM B-RORγ LBD solution
T1 sequence (P51449 269-508 limits assumed): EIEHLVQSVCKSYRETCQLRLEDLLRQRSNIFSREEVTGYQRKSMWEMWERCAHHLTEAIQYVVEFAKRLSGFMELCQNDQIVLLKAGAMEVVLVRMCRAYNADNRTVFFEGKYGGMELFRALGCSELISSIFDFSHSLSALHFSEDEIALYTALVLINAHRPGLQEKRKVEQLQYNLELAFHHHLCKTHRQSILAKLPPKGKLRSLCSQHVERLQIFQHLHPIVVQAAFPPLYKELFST
T1 sequence (Q15788 676-700 partner limits assumed): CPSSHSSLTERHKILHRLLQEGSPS
Description: Determination of Agonistic Activities of Compounds on RORγ Receptors In Vitro The agonistic activities of compounds described herein on RORγ receptor were determined by dual fluorescence resonance energy transfer (dual FRET) experiments. The agonistic activity was expressed by half maximum effect concentration (EC50).
1) Preparation of RORγ Assay Buffer
100 mL of buffer solution was well mixed with […] DTT for use.
2) Preparation of Solutions of Compounds
3) Preparation of protein mixtures a) 40 nM B-RORγ LBD solution was mixed well with 20 nM SA-APC solution and incubated for 15 minutes at room temperature. Then the resulting mixture was further mixed well with 400 nM Biotin and incubated for another 10 minutes at room temperature. […]
b) 40 nM Bioin-SRC1 solution was mixed well with 10 nM SA-eu solution and was incubated for 15 minutes at room temperature. Then the resulting mixture was further mixed well with 200 nM Biotin and was incubated for another 10 minutes at room temperature. […]
d) A mixture (25 μL) of B-RORγ LBD/SA-APC and Bioin-SRC1/SA-eu together with a test compound was added to one of the wells of a 384-well plate, and then the plate was centrifuged for one minute at 1000 rpm, and incubated at room temperature for one hour. The data were read on an Envision microplate detector and EC50 values were calculated.

SMILES	pEC50 [2]	pEC50 [3]	activation at 2 µM [1] [%]
CCS(=O)(=O)c1ccc(CC(=O)Nc2cc(Cl)c(-c3ccc(CC(C)C)c(C#N)c3)c(Cl)c2)nc1 [Example 19, N-(2,6-Dichloro-3′-cyano-4′-isobutyl-[1,1′-biphenyl]-4-yl)-2-(5-(ethylsulfonyl)pyridin-2-yl)acetamide]	6.82 to 7.30		20 to 50
CCN(C)Cc1ccc(-c2c(Cl)cc(NC(=O)Cc3ccc(S(=O)(=O)CC)cc3)cc2Cl)cc1C#N [Example 36, N-(2,6-Dichloro-3′-cyano-4′-((ethyl(methyl)amino)methyl)-[1,1′-biphenyl]-4-yl)-2-(4-(ethylsulfonyl)phenyl)acetamide]	< 6.82	7.30 to 8.00	> 50
CC(C)Cc1ccc(-c2c(Cl)cc(NC(=O)Cc3ccc(S(C)(=O)=O)cn3)cc2Cl)cc1C#N [Example 20, N-(2,6-dichloro-3′-cyano-4′-isobutyl-[1,1′-biphenyl]-4-yl)-2-(5-(methylsulfonyl)pyridin-2-yl)acetamide]	< 6.82	7.30 to 8.00	> 50

Further lines, with some results ahead:

pEC50 [2]	pEC50 [3]	SMILES	activation at 2 µM [1] [%]
> 7.30	7.30 to 8.00	CCS(=O)(=O)c1ccc(CC(=O)Nc2cc(Cl)c(-c3ccc(CC(C)C)c(C#N)c3)c(Cl)c2)cc1 [Example 16, N-(2,6-Dichloro-3′-cyano-4′-isobutyl-[1,1′-biphenyl]-4-yl)-2-(4-(ethylsulfonyl)phenyl)acetamide]	> 50
> 7.30	> 8.00	CC(C)Cc1ccc(-c2c(Cl)cc(NC(=O)Cc3ccc(S(N)(=O)=O)cc3)cc2Cl)cc1C#N [Example 21, N-(2,6-Dichloro-3′-cyano-4′-isobutyl-[1,1′-biphenyl]-4-yl)-2-(4-sulfamoylphenyl)acetamide]	20 to 50
> 7.30	7.30 to 8.00	CC(C)Cc1ccc(-c2c(Cl)cc(NC(=O)Cc3ccc(S(C)(=O)=O)cc3)cc2Cl)cc1C#N [Example 17, N-(2,6-Dichloro-3′-cyano-4′-isobutyl-[1,1′-biphenyl]-4-yl)-2-(4-(methylsulfonyl)phenyl)acetamide]	> 50
